Legend:
[1] = Isothermal titration calorimetry (ITC), NO3^−; type: binding; settings: DMSO:CHCl3 (5:95, v/v), 25° C.
Procedure: (§1) Isothermal titration calorimetry (ITC) experiments were performed using a MicroCal VP-ITC. ITC experiments were conducted by adding ~1.5 mL of a solution containing c5a to the sample cell. Followed by titrating 10 μL aliquots of a solution containing the corresponding TBA·X salt (~10-14× concentration of c5a solution) from the syringe into the sample cell. Heats of dilution were obtained by titrating 10 μL aliquots of the TBA·X solution from the syringe into the sample cell in the absence of c5a. The heats of dilution were subtracted from the raw data. ITC data processing and curve fitting was done using the Origin program (MicroCal).
(§2) Two-step competition ITC experiments for determining the Ka of c5a and iodide. In CH3CN:CHCl3 (5:95, v/v), the binding affinity of c5a for I^− was too high to be determined with direct NMR or ITC titration. Instead, two-step competition ITC experiments with Cl^− as the competitor were performed.

[2] = Isothermal titration calorimetry (ITC), BF4^−; type: binding; settings: DMSO:CHCl3 (5:95, v/v), 25° C.
Procedure: as §1, §2

[3] = Ion transport with different MCl salts, HPTS assay; type: biochemical; settings: POPC LUVs, 100 mM MCl, pH 7.0, 25° C.
Procedure: Inside vesicles: 10 mM HEPES, 100 mM MCI (M=Li, Na, K, Rb), 1 mM HPTS, pH 7.0. Outside vesicles: 10 mM HEPES, 100 mM MCI, pH 7.0. A base pulse (20 μL of 0.5 M NaOH) was applied to each vesicular solution at 50 s, followed by adding 20 μL of c5a in DMF at 100 s. For each group, the vesicles were lysed after 200 s by adding 0.1% Triton X-100 to obtain the maximum emission intensity for normalization. The emission intensities of the intravesicular HPTS at 510 nm, I405 and I450, corresponding to two excitation wavelengths (405 and 450 nm) were monitored simultaneously, based on which the normalized intensity ratios (I405/I450) of the two emision intensities were obtained.

[4] = Carrier vs channel chloride transport with DPPC LUVs; type: biochemical; settings: HPTS
Procedure: Differentiation of carrier vs channel chloride transport with DPPC LUVs. An aliquot (20 μL) DPPC LUVs (intravesicular components: 10 mM HEPES, 100 mM NaCl, pH 7.0) was added to 1.98 mL of a buffer comprised of 10 mM HEPES, 100 mM NaCl, pH 7, followed by incubating at 45° C. for 3 min. An aliquot (20 μL) of c5a (0.2 mM) in DMF was added to the LUVs, with the final concentration of c5a being […], and the solution was incubated for an additional 3 min at 45° C. LUVs with c5a were incubated either at 45° C. or 25° C. for 3 minutes.

Structure (SMILES): CCCCCCCCOCC(C)(C)C(=O)Nc1ccc2cc1C(=O)Nc1ccc(NC(=O)C(C)(C)COCCCCCCCC)c(c1)C(=O)Nc1ccc(NC(=O)C(C)(C)COCCCCCCCC)c(c1)C(=O)Nc1ccc(NC(=O)C(C)(C)COCCCCCCCC)c(c1)C(=O)Nc1ccc(NC(=O)C(C)(C)COCCCCCCCC)c(c1)C(=O)N2 [c5a]
- Association constant Ka, 1:1 complex with NO3^− [1]: (1.30 ± 0.10) × 10^6 M^−1
- Association constant Ka, 1:1 complex with BF4^− [2]: (8.70 ± 0.40) × 10^5 M^−1
- transmembrane ion transport in the presence of LiCl, NaCl, KCl, or RbCl [3]: insignificant difference
- chloride transport into DPPC LUVs ([4]; 25° C. (gel phase), c5a pre-incubated at 45° C.): completely prohibited
- chloride transport into DPPC LUVs ([4]; 45° C. (fluid phase)): enhanced halide transport
